The target of test [1] is T1, Nuclear factor erythroid 2-related factor 2 (Homo sapiens) (UniProt Q16236).
T1 sequence (whole entry): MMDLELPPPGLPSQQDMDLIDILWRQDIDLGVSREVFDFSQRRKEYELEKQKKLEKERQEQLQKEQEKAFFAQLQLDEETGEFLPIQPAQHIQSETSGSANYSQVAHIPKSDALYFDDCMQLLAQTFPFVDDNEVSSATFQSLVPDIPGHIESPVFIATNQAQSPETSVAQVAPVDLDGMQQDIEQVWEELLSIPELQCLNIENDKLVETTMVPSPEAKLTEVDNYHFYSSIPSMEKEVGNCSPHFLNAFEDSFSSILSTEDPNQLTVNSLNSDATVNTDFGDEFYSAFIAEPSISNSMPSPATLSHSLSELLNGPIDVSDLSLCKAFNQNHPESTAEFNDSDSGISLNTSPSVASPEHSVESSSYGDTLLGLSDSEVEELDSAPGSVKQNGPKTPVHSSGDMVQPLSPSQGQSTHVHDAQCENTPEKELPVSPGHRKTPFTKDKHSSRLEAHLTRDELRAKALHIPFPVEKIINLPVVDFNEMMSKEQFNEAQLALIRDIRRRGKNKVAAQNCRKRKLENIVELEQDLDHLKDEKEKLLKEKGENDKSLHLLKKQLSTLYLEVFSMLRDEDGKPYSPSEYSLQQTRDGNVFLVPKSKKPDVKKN
Kind of test: Activation of Nrf2 in human BEAS2B cells assessed as increase in HO1 gene expression at 10 uM incubated for 6 hrs by qPCR method. The format is cell-based. A general note: In qPCR the cycle at which signal appears reflects the starting amount.

The target in test [2] is T1, Nuclear factor erythroid 2-related factor 2 (Homo sapiens). Kind of test: Activation of Nrf2 in human BEAS2B cells assessed as increase in HO1 gene expression at 5 uM incubated for 6 hrs by qPCR method. The format is cell-based.
Test [3] deals with Mus musculus. Kind of test: Increase in HO-1 gene expression in mouse lung at 200 mg/kg, po measured 6 hrs post dose by qPCR method. The class given is functional, organism-based.
For test [4], the system named is Mus musculus. Description: Increase in HO-1 gene expression in mouse lung at 400 mg/kg, po measured 6 hrs post dose by qPCR method. The format is functional, organism-based.
Test [5] relates to Mus musculus. Kind of test: Increase in HO-1 protein expression in mouse lung at 400 mg/kg, po measured 6 hrs post dose by ELISA method. The class given is functional, organism-based. A general note: ELISA stands for enzyme-linked immunosorbent assay.
The test system of test [6] is Mus musculus. Kind of test: Increase in HO-1 protein expression in mouse lung at 200 mg/kg, po measured 6 hrs post dose by ELISA method. The class given is functional, organism-based.

Molecules are shown by their SMILES. Activity calls are given as the source filed them. The rule behind the calls is not given here.

Regarding `COC(=O)[C@]12CCC(C)(C)C[C@H]1[C@H]1C(=O)C=C3[C@@]4(C)C=C(C#N)C(=O)C(C)(C)[C@@H]4CC[C@@]3(C)[C@]1(C)CC2`, in test [1], the result was Active.

For the compound `COc1ccncc1C(=O)/C=C/c1ccccc1C(F)(F)F`, the result in test [2] was Active.

As for `COc1ccccc1C(=O)/C=C/c1ccncc1C(F)(F)F`, the outcome in test [2] was Active.

For the compound `COc1ccccc1C(=O)/C=C/c1ncccc1C(F)(F)F`, the outcome (in test [2]; with Mus musculus [3]; in the test with Mus musculus [4]; in the test on Mus musculus [5]) was Active.

For the compound `COc1cnccc1C(=O)/C=C/c1ccccc1C(F)(F)F`, the result in test [2] was Active.

As to `COc1ccccc1C(=O)/C=C/c1cnccc1C(F)(F)F`, in test [2], the result was Active.

On to `COc1ccccc1C(=O)/C=C/c1ccccc1C(F)(F)F`, for which the outcome (in test [2]; in the test on Mus musculus [3]; with Mus musculus [4]; in the test with Mus musculus [6]; in the test on Mus musculus [5]) was Active.

The values are drawn from ChEMBL document CHEMBL3603814, “Heterocyclic chalcone activators of nuclear factor (erythroid-derived 2)-like 2 (Nrf2) with improved in vivo efficacy” (Bioorg Med Chem, 2015).
